Experimental data reported in paper doi:10.1101/215335v1 (biorxiv, 2017).

Target: T1, TaALMT1 (Triticum aestivum, UniProt Q76LB1)
T1 sequence (Q76LB1 1-459): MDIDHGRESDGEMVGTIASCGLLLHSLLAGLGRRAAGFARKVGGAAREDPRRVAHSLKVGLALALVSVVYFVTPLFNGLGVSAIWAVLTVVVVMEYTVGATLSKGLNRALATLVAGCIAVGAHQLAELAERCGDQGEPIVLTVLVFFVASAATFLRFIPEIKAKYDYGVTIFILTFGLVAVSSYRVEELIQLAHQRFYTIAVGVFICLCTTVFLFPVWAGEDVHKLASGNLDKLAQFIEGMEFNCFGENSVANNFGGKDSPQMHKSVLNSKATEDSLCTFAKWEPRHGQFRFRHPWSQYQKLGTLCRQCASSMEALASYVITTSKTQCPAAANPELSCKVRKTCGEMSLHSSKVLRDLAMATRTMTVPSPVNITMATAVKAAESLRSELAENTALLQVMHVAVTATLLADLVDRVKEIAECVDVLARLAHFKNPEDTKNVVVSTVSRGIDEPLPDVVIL
Assay: TEVC in Xenopus oocytes, malate-activated inward current
Type: cell-based
Conditions: read-out: % inhibition at 100 μM

inhibition at 100 µM: 100%
SMILES: C=CC(N)CCC(=O)O (stereo not shown) [vigabatrin]
